Laboratory results published in the supplement of paper PMC10307832.

Tests used:
Experiment in all cases: relative viability (nuclei count vs DMSO), 5 days (fraction); higher = more cells survive
RO-3306 + Alpelisib = compound: C1=CC2=C(C=CC(=C2)C=C3C(=O)NC(=NCC4=CC=CS4)S3)N=C1 [RO-3306] + Cc1nc(NC(=O)N2CCC[C@H]2C(N)=O)sc1-c1ccnc(C(C)(C)C(F)(F)F)c1 [Alpelisib] (partner 2 µM)
How it was run: (§1)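 Values are medians from duplicate plates. Each reflects relative viability, defined as the nuclei count of treated wells over that of vehicle wells. Lung cancer cell lines in 1536-well plates were pin-tool dosed one day after seeding with one drug alone or with a fixed anchor-drug dose plus five library-drug doses (not always all listed) in √10 steps, then fixed, stained and imaged at 4× after 5 days.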

[1] = compound: O=S(=O)(c1ccccc1)N(CC(F)(F)F)c1ccc(C(O)(C(F)(F)F)C(F)(F)F)cc1 + COc1cc2c(Oc3ccc(NC(=O)C4(C(=O)Nc5ccc(F)cc5)CC4)cc3F)ccnc2cc1OCCCN1CCOCC1 [Foretinib] (partner 0.25 µM)
How it was run: as §1

[2] = compound: O=S(=O)(c1ccccc1)N(CC(F)(F)F)c1ccc(C(O)(C(F)(F)F)C(F)(F)F)cc1 + CC(=O)Nc1cccc(-n2c(=O)n(C3CC3)c(=O)c3c(Nc4ccc(I)cc4F)n(C)c(=O)c(C)c32)c1 [Trametinib] (partner 0.02 µM)
How it was run: as §1

RO-3306 + Decitabine = compound: C1=CC2=C(C=CC(=C2)C=C3C(=O)NC(=NCC4=CC=CS4)S3)N=C1 [RO-3306] + Nc1ncn([C@H]2C[C@H](O)[C@@H](CO)O2)c(=O)n1 [Decitabine] (partner 2 µM)
How it was run: as §1

| Cell Line | relative viability (RO-3306 + Alpelisib; first compound 0.01 µM) | relative viability (RO-3306 + Alpelisib; first compound 0.03162 µM) | relative viability (RO-3306 + Alpelisib; first compound 0.1 µM) | relative viability (RO-3306 + Alpelisib; first compound 0.3162 µM) | relative viability (RO-3306 + Alpelisib; first compound 1 µM) | relative viability ([1]; first compound 0.8 µM) | relative viability ([1]; first compound 2.53 µM) | relative viability ([1]; first compound 8 µM) | relative viability ([2]; first compound 0.8 µM) | relative viability ([2]; first compound 2.53 µM) | relative viability ([2]; first compound 8 µM) | relative viability (RO-3306 + Decitabine; first compound 0.01 µM) | relative viability (RO-3306 + Decitabine; first compound 0.03162 µM) | relative viability (RO-3306 + Decitabine; first compound 0.1 µM) | relative viability (RO-3306 + Decitabine; first compound 0.3162 µM) | relative viability (RO-3306 + Decitabine; first compound 1 µM) |
| --- | --- | --- | --- | --- | --- | --- | --- | --- | --- | --- | --- | --- | --- | --- | --- | --- |
| NCI-H596 | 0.443 | 0.48 | 0.49 | 0.511 | 0.432 | 0.876 | 0.711 | 0.887 | 0.746 | 0.794 | 0.724 | 0.985 | 0.805 | 0.882 | 1.02 | 0.891 |
| EPLC-272H | 0.927 | 0.79 | 0.909 | 0.829 | 0.972 | 0.544 | 0.599 | 0.702 | 0.274 | 0.289 | 0.269 | 0.367 |  | 0.335 | 0.324 | 0.355 |
| RERF-LC-KJ | 1.01 | 0.708 | 0.706 | 0.836 | 0.768 | 0.816 | 0.746 | 0.751 | 0.812 | 0.721 | 0.663 | 0.763 | 0.715 | 0.689 | 0.75 | 0.665 |
| HARA | 1.05 | 0.754 | 0.953 | 0.973 | 0.795 | 0.845 | 0.782 | 0.849 | 0.561 |  | 0.634 | 0.523 |  | 0.58 | 0.654 | 0.692 |
| NCI-H838 | 0.992 | 0.972 | 1.01 | 1.04 | 0.999 | 1.15 | 1.05 | 1.02 | 0.604 | 0.474 | 0.596 | 0.512 | 0.443 | 0.425 | 0.466 | 0.412 |
| NCI-H727 | 0.622 | 0.531 | 0.517 | 0.716 | 0.786 | 0.83 | 0.846 | 0.867 | 0.358 | 0.368 | 0.375 | 0.834 | 0.751 | 0.891 | 0.888 | 0.846 |
| BEN | 1.3 | 0.738 | 0.926 | 1.09 | 1.08 | 0.568 | 0.527 | 0.578 | 1.05 | 0.888 | 1.02 | 0.645 | 0.69 | 0.723 | 0.725 | 0.824 |
| NCI-H1437 | 1.05 | 0.868 | 0.999 | 1 | 0.929 | 1.35 | 1.09 | 0.979 | 0.538 | 0.36 | 0.432 | 0.59 | 0.513 | 0.549 | 0.596 | 0.631 |
| SK-LU-1 | 1.03 | 1.07 | 0.951 | 1.02 | 0.973 | 0.716 | 0.857 | 0.695 | 0.466 | 0.537 | 0.491 | 0.657 | 0.537 | 0.597 | 0.643 | 0.56 |
| NCI-H1915 | 1.11 | 0.988 | 1.08 | 1.11 | 1.05 | 1.1 | 1.03 | 1.1 | 0.303 | 0.261 | 0.255 | 0.245 | 0.262 | 0.252 | 0.239 | 0.251 |
| LU99A | 0.492 | 0.452 | 0.564 | 0.472 | 0.491 | 0.785 | 0.773 | 0.725 | 0.521 | 0.541 | 0.464 | 1.21 | 0.702 | 0.915 | 0.926 | 1 |
| NCI-H1975 | 0.882 | 0.507 | 0.615 | 0.675 | 0.67 | 1.11 | 1.01 | 1.13 | 0.341 | 0.338 | 0.316 | 0.336 | 0.386 | 0.376 | 0.405 | 0.5 |
| SK-MES-1 | 0.9 | 0.553 | 0.831 | 0.983 | 0.922 | 0.723 | 0.728 | 0.767 | 0.546 | 0.573 | 0.59 | 0.341 | 0.406 | 0.327 | 0.352 | 0.371 |
| NCI-H2009 | 1.18 | 1.18 | 1.21 | 1.12 | 1.27 | 1.26 | 1.08 | 0.988 | 0.259 | 0.246 | 0.289 | 0.385 | 0.373 | 0.351 | 0.382 | 0.371 |
| COR-L 105 | 1.36 | 0.835 | 1.06 | 1.09 | 0.998 | 1.13 | 0.852 | 1.48 | 0.39 | 0.424 | 0.382 | 0.652 | 0.607 | 0.596 | 0.623 | 0.658 |
| LCLC-103H | 0.919 | 0.976 | 1.03 | 0.962 | 0.948 | 0.973 | 0.758 | 0.81 | 0.71 | 0.731 | 0.739 | 0.772 | 0.651 | 0.695 | 0.768 | 0.713 |
